Patent US12398154B2, “Azaquinazoline pan-KRas inhibitors” (Mirati Therapeutics, Inc., priority 2020, dated 2025)

Assays:
pERK in PSN1 cells = assay: Inhibition of KRas phosphorylation of ERK (Cisbio HTRF pERK assay); details: Homo sapiens, PSN1, 3 h, read-out: Inhibition (HTRF IC50) of KRas-mediated Phosphorylation of ERK, PSN1
pERK in ASPC1 cells = assay: as above; details: Homo sapiens, ASPC1, read-out: Inhibition (HTRF IC50) of KRas-mediated Phosphorylation of ERK, AsPC-1
pERK in HCT116 cells = assay: as above; details: Homo sapiens, HCT-116, read-out: Inhibition (HTRF IC50) of KRas-mediated Phosphorylation of ERK, HCT116
pERK in H460 cells = assay: as above; details: Homo sapiens, NCI-H460, read-out: Inhibition (HTRF IC50) of KRas-mediated Phosphorylation of ERK, H460
pERK in H358 cells = assay: as above; details: Homo sapiens, NCI-H358, read-out: Inhibition (HTRF IC50) of KRas-mediated Phosphorylation of ERK, H358
KRas G12R = KRas G12R (Homo sapiens, UniProt P01116, G12R); assay: biochemical;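 further: TR-FRET displacement assay of compound binding to KRas, read after one hour at room temperature, potency from a four-parameter fit of percent-of-control values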
Experimental: (§2) The ability of a compound to bind to KRas was measured using a TR-FRET displacement assay. […] After a 60-minute incubation at room temperature, the reaction was measured using a BMG LABTECH CLARIO star Plus via TR-FRET. […] The POC values were fit to a 4-parameter IC50 equation and the IC50 value reported.

pERK in A549 cells = assay: Inhibition of KRas phosphorylation of ERK (Cisbio HTRF pERK assay); details: Homo sapiens, A549, read-out: Inhibition (HTRF IC50) of KRas-mediated Phosphorylation of ERK, A549
KRas G12V = KRas G12V (Homo sapiens, UniProt P01116, G12V); assay: biochemical;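 further: KRas binding measured by TR-FRET displacement at room temperature, IC50 fitted from percent of control values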
Experimental: as §2

pERK in MKN1 cells = assay: Inhibition of KRas phosphorylation of ERK (Cisbio HTRF pERK assay); details: Homo sapiens, MKN-1, 3 h, read-out: Inhibition (HTRF IC50) of KRas-mediated Phosphorylation of ERK, MKN1
pERK in H727 cells = assay: as above; details: Homo sapiens, NCI-H727, read-out: Inhibition (HTRF IC50) of KRas-mediated Phosphorylation of ERK, H727
KRas G12D = KRas G12D (Homo sapiens, UniProt P01116, G12D); assay: biochemical;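 further: TR-FRET displacement binding assay on KRas, read after a one-hour incubation at room temperature, IC50 fitted from percent-of-control values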
Experimental: as §2

[1] = test system: phospho-ERK in AsPC-1 (G12D) cells; assay: Inhibition of KRas-mediated phosphorylation of ERK (in-cell western); type: cell-based; details: Homo sapiens, ASPC1, 3 h, 3 hours compound, phospho-ERK normalized to GAPDH
Method in brief: (§1)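 IC50 came from 4-parameter dose-response fits of phospho-ERK (Thr202/Tyr204)/GAPDH signal, expressed as % DMSO control. Compounds were applied for 3 h at 0.5% DMSO before fixation, methanol permeabilization and antibody imaging by in-cell western.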

[2] = test system: phospho-ERK in NCI-H727 (G12V) cells; assay: as above; type: cell-based; details: Homo sapiens, NCI-H727, 3 h, 3 hours compound, phospho-ERK normalized to GAPDH
Method in brief: as §1

[3] = test system: phospho-ERK in NCI-H460 (Q61H) cells; assay: as above; type: cell-based; details: Homo sapiens, NCI-H460, 3 h, 3 hours compound, phospho-ERK normalized to GAPDH
Method in brief: as §1

Chain of KRas G12R (P01116 1-169 isoform P01116-2 G12R): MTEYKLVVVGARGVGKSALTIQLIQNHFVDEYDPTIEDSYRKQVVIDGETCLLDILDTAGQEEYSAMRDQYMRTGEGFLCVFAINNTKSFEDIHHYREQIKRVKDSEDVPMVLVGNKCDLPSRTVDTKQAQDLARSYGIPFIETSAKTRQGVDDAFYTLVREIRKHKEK
Chain of KRas G12V (P01116 1-169 isoform P01116-2 G12V): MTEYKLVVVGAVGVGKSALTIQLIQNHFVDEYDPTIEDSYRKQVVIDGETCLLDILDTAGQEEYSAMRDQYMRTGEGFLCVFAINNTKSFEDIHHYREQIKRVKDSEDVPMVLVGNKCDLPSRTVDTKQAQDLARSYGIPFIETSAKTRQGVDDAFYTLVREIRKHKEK
Chain of KRas G12D (P01116 1-169 isoform P01116-2 G12D): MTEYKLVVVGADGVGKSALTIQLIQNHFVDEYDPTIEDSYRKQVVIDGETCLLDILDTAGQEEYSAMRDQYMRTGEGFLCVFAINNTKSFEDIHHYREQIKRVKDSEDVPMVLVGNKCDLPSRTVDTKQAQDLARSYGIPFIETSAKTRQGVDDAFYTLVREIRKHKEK

SMILES	IC50 (pERK in PSN1 cells) [nM]	IC50 (pERK in ASPC1 cells) [nM]	IC50 (pERK in HCT116 cells) [nM]	IC50 (pERK in H460 cells) [nM]	IC50 (pERK in H358 cells) [nM]	IC50 (KRas G12R) [nM]	IC50 (pERK in A549 cells) [nM]	IC50 (KRas G12V) [nM]	IC50 (pERK in MKN1 cells) [nM]	IC50 (pERK in H727 cells) [nM]	IC50 (KRas G12D) [nM]	IC50 [1] [nM]	IC50 [2] [nM]	IC50 [3] [nM]
CCc1c(F)ccc2cc(O)cc(-c3ncc4c(N5C[C@@H](CO)C[C@](C)(O)C5)nc(OC[C@@]56CCCN5C[C@H](F)C6)nc4c3F)c12 (mixture of isomers) [Example 327, (3RS,5RS)-1-(7-(8-ethyl-7-fluoro-3-hydroxynaphthalen-1-yl)-8-fluoro-2-(((2R,7aS)-2-fluorotetrahydro-1H-pyrrolizin-7a(5H)-yl)methoxy)pyrido[4,3-d]pyrimidin-4-yl)-5-(hydroxymethyl)-3-methylpiperidin-3-ol]	6690	23	381	206	10	≤ 2	238	≤ 2	14	98	≤ 2	–	–	–
CCc1c(F)ccc2cc(O)cc(-c3ncc4c(N5CCC[C@]6(C5)C[C@H](O)C6)nc(OC[C@@]56CCCN5C[C@H](F)C6)nc4c3F)c12 (single isomer, unassigned) [Example 323]	600	8	22	11	2	–	19	–	2	8	–	–	–	–
CCc1c(F)ccc2cc(O)cc(-c3ncc4c(N5CCC[C@]6(C5)C[C@@H](O)C6)nc(OC[C@@]56CCCN5C[C@H](F)C6)nc4c3F)c12 (single isomer, unassigned) [Example 324]	1440	35	61	99	14	–	95	–	3	22	–	–	–	–
CCc1c(F)ccc2cc(O)cc(-c3ncc4c(N5CCC[C@]6(C5)NC(=O)NC6=O)nc(OC[C@@]56CCCN5C[C@H](F)C6)nc4c3F)c12 [Example 307, (R)-7-(7-(8-ethyl-7-fluoro-3-hydroxynaphthalen-1-yl)-8-fluoro-2-(((2R,7aS)-2-fluorohexahydro-1H-pyrrolizin-7a-yl)methoxy)pyrido[4,3-d]pyrimidin-4-yl)-1,3,7-triazaspiro[4.5]decane-2,4-dione]	106	58	33	12	15	≤ 2	–	≤ 2	5	85	≤ 2	117	215	11
CCc1c(F)ccc2cc(O)cc(-c3ncc4c(N5CCCOCC5)nc(OC[C@@]56CCCN5C[C@H](F)C6)nc4c3F)c12 [Example 315, 5-ethyl-6-fluoro-4-(8-fluoro-2-(((2R,7aS)-2-fluorohexahydro-1H-pyrrolizin-7a-yl)methoxy)-4-(1,4-oxazepan-4-yl)pyrido[4,3-d]pyrimidin-7-yl)naphthalen-2-ol]	1960	20	24	34	5	–	28	–	5	20	–	–	–	–
CCc1c(F)ccc2cc(O)cc(-c3ncc4c(N5CCC[C@@](C)(O)C5)nc(OCC5(CN(C)C)CC5)nc4c3F)c12 [Example 316, (R)-1-(2-((1-((dimethylamino)methyl)cyclopropyl)methoxy)-7-(8-ethyl-7-fluoro-3-hydroxynaphthalen-1-yl)-8-fluoropyrido[4,3-d]pyrimidin-4-yl)-3-methylpiperidin-3-ol]	2040	8	30	69	9	–	51	–	1	32	–	–	–	–
CCc1c(F)ccc2cc(O)cc(-c3ncc4c(N5CCC[C@@](C)(O)C5)nc(OCC5(CN6CCCCC6)CC5)nc4c3F)c12 [Example 331, (R)-1-(7-(8-ethyl-7-fluoro-3-hydroxynaphthalen-1-yl)-8-fluoro-2-((1-(piperidin-1-ylmethyl)cyclopropyl)methoxy)pyrido[4,3-d]pyrimidin-4-yl)-3-methylpiperidin-3-ol]	–	4	27	16	3	≤ 2	6	≤ 2	1	35	≤ 2	–	–	–
CCc1c(F)ccc2cc(O)cc(-c3ncc4c(N5CCC[C@@](C)(O)C5)nc(OCC5(CN6CCOCC6)CC5)nc4c3F)c12 [Example 332, (R)-1-(7-(8-ethyl-7-fluoro-3-hydroxynaphthalen-1-yl)-8-fluoro-2-((1-(morpholinomethyl)cyclopropyl)methoxy)pyrido[4,3-d]pyrimidin-4-yl)-3-methylpiperidin-3-ol]	710	6	48	22	3	3	13	≤ 2	2	31	≤ 2	–	–	–
CCc1c(F)ccc2cc(O)cc(-c3ncc4c(N5CCC[C@@](C)(O)C5)nc(OCC5(CN6CCN(C)CC6)CC5)nc4c3F)c12 [Example 336, (R)-1-(7-(8-ethyl-7-fluoro-3-hydroxynaphthalen-1-yl)-8-fluoro-2-((1-((4-methylpiperazin-1-yl)methyl)cyclopropyl)methoxy)pyrido[4,3-d]pyrimidin-4-yl)-3-methylpiperidin-3-ol]	4120	32	208	162	59	≤ 2	75	≤ 2	4	129	≤ 2	–	–	–
CCc1c(F)ccc2cc(O)cc(-c3ncc4c(N5CCCn6nc(C(=O)NC)cc6C5)nc(OC[C@@]56CCCN5C[C@H](F)C6)nc4c3F)c12 [Example 339, 5-(7-(8-ethyl-7-fluoro-3-hydroxynaphthalen-1-yl)-8-fluoro-2-(((2R,7aS)-2-fluorotetrahydro-1H-pyrrolizin-7a(5H)-yl)methoxy)pyrido[4,3-d]pyrimidin-4-yl)-N-methyl-5,6,7,8-tetrahydro-4H-pyrazolo[1,5-a][1,4]diazepine-2-carboxamide]	≥ 10000	48	826	991	95	≤ 2	557	≤ 2	12	72	≤ 2	–	–	–
C[C@@]1(O)CCCN(c2nc(OC[C@@]34CCCN3C[C@H](F)C4)nc3c(F)c(-c4cc(O)cc5ccc(F)c(F)c45)ncc23)C1 [Example 514, (R)-1-(7-(7,8-difluoro-3-hydroxynaphthalen-1-yl)-8-fluoro-2-(((2R,7aS)-2-fluorohexahydro-1H-pyrrolizin-7a-yl)methoxy)pyrido[4,3-d]pyrimidin-4-yl)-3-methylpiperidin-3-ol]	859	15	30	60	11	–	20	–	5	19	–	–	–	–
O=S1(=O)NC[C@]2(CCCN(c3nc(OC[C@@]45CCCN4C[C@H](F)C5)nc4c(F)c(-c5cc(O)cc6ccc(F)c(Cl)c56)ncc34)C2)N1 [Example 515, (R)-7-(7-(8-chloro-7-fluoro-3-hydroxynaphthalen-1-yl)-8-fluoro-2-(((2R,7aS)-2-fluorotetrahydro-1H-pyrrolizin-7a(SB)-yl)methoxy)pyrido[4,3-d]pyrimidin-4-yl)-2-thia-1,3,7-triazaspiro[4.5]decane2,2-dioxide]	–	35	24	19	7	≤ 2	36	≤ 2	–	19	≤ 2	–	–	–
